# Tests used:
# WT CD11c^+ BM cells = assay: Co-culture of WT CD11c+ BM cells with OT-2 CD4+ T cells, IL-4 by ELISA (pro-Th2 phenotype); assay type: cell-based, mouse; conditions: H-89 10 μM; CE3F4 50 μM or 25 μM (method); 30 min at 37° C.; FIG. 9b
# Experimental: Cytokine levels in the supernatant were determined using ELISA kits for IL-4, IL-5, IL-13, IL-10, IFNγ, TNFα and IL-17A (eBioscience, La Jolla, Calif.) following the manufacturers' instructions as published^17.
# WT BM-derived CD11c^+ cells were cultured and then incubated with a PKA inhibitor (H-89, 10 μM), with or without pretreatment with pertussis toxin (PTX, 100 μg/ml, 18 h), or with EPAC inhibitor (CE3F4, 25 μM) for 30 min at 37° C., then washed and co-cultured with OT-2 T cells.
# [1] = system: Gnas^ΔCD11c CD11c^+ BM cells; assay: Co-culture of Gnas^ΔCD11c CD11c+ BM cells with OT-2 CD4+ T cells, IL-4 by ELISA (pro-Th2 phenotype); assay type: cell-based, mouse
# Experimental: For the inhibition of Th2 response by cAMP, fl/fl or Gnas^ΔCD11c BM-derived CD11c^+ cells were cultured as above, then, incubated with 8-CPT-cAMP (50 μM) for 24 h, washed and then co-cultured with OT-2 T cells.
# [2] = system: CCL2 expression in Gnas^ΔCD11c CD11c^+ BM cells; assay: CCL2 mRNA levels (qPCR) in CD11c+ BM cells; assay type: cell-based, mouse; conditions: Gnas^ΔCD11c CD11c+ BM cells incubated with 8-CPT-cAMP 50 μM; FIG. 9g
# Experimental: Isolation of RNA was carried out using an RNeasy Mini Kit (QIAGEN, Valencia, Calif.) according to the manufacturer's instructions. The cDNA was synthesized using Superscript III First-Strand system (Invitrogen). Quantitative PCR analysis was performed as described previously^54. SYBR Green PCR Master Mix was used for real-time PCR (7300 system, Applied Biosystems). Samples were run in triplicate and normalized by a housekeeping gene (mouse GAPDH).
# [3] = system: WT (B6) and Gnas^ΔCD11c recipient mice; assay: Adoptive transfer of OVA-loaded Gnas^ΔCD11c CD11c+ BM cells treated with or without 8-CPT-cAMP; assay type: in vivo, mouse; conditions: BM cells treated in vitro with 50 μM 8-CPT-cAMP before i.n. transfer, 2×10^5 cells/recipient
# Experimental: FIG. 14: Adoptive transfer of CD11c^+ BM cells from Gnas^ΔCD11c mice induces a Th2 bias in vivo, a response that is inhibited by a cell-permeable cAMP analogue: (a) OVA-specific IL-4 response by OT-2 CD4^+ T cells co-cultured with cell-permeable cAMP (8-CPT-cAMP, 50 μM)-treated CD11c^+ BM cells, (b) Protocol of the adoptive transfer. OVA-loaded Gnas^ΔCD11c CD11c^+ BM cells were incubated in the absence and presence of 50 μM 8-CPT-cAMP (CPT) in vitro prior to i.n. transfer to WT (B6 mice) and Gnas^ΔCD11c recipients (2×10^5 cells/recipient), (c) IL-4 levels of anti-CD3/28 Ab-stimulated CD4^+ T cells (spleen) from WT or Gnas^ΔCD11c recipients (ELISA), (d) Serum levels of IgE and IgG1 from WT and Gnas^ΔCD11c mice that received Gnas^ΔCD11c CD11c^+ BM cells loaded with OVA with/without CPT, (e) Lung histology from WT and Gnas^ΔCD11c recipients (magnification ×100, scale bar: 100 μm) (Data are mean±s.e.m, n=3-4 in each group; * p<0.05, ** p<0.01, p<0.001).
# Adoptive transfer of OVA-pulsed Gnas^ΔCD11c CD11c^+ BM cells into mice was performed as described previously^55. […] 1 day after the last OVA challenge, mice were sacrificed and assessed by lung histology, measurement of serum immunoglobulins and cytokine production.
# Wild-type B6 mice = assay: Immunization with OVA, alum and cAMP-elevating agent; OVA-specific IL-17 (ELISA); assay type: in vivo, mouse; conditions: i.p. twice two weeks apart, OVA 50 μg/mice with alum; colforsin 1 mg/kg, IBMX 5 mg/kg; spleen cells of day 28 incubated 3 days with OVA; FIG. 16
# Experimental: FIG. 16 cAMP agents provoke IL-17 responses: Wild-type B6 mice were immunized intraperitoneally (i.p.) twice two weeks apart with OVA (50 μg/mice) with and without alum (20 mg/mice), and colforsin (CF; a cAMP elevating drug that is approved for human use in Japan, 1 mg/kg), IBMX (a PDE inhibitor, 5 mg/kg), or solvent only as a control; on day 28, single-cell suspensions were prepared from the spleens and incubated for 3 days with OVA (200 μg/mL) as we described earlier (16); IL-17 levels were then detected (ELISA); *p<0.05 and **p<0.01 compared with OVA/alum-immunized group, n=4/group.
# Based on the data presented above, co-immunization with antigen and a cAMP-elevating agent can induce a Th17 response. To promote stimulation of the same DC with antigen and cAMP agent, both were adsorbed to alum, an adjuvant used in humans (22), and immunized C57BL/6 (B6) mice with the combination.
compound,measurement,setting,value
O=S(=O)(NCCNC/C=C/c1ccc(Br)cc1)c1cccc2cnccc12 [H-89],pro-Th2 phenotype of WT CD11c+ BM cells (IL-4 levels of co-cultured OT-2 CD4+ T cells),WT CD11c^+ BM cells,promoted their pro-Th2 phenotype
"Nc1ncnc2c1nc(Sc1ccc(Cl)cc1)n2[C@@H]1O[C@@H]2COP(=O)([O-])O[C@H]2[C@H]1O.[Na+] [CPT, 8-(4-Chlorophenylthio) adenosine 3′,5′-cyclic monophosphate sodium salt]",IL-4 production by OT-2 CD4+ T cells co-cultured with treated Gnas^ΔCD11c BM cells,"[1]; 8-CPT-cAMP 50 μM, 24 h, in vitro, FIG. 14a",abolished the subsequent IL-4 production
same,"CCL2 expression (mRNA, qPCR)",[2],decreased CCL2 expression
same,"development of Th2 bias in recipients (IL-4 of splenic CD4+ T cells, serum IgE)",[3]; FIG. 14c-d,inhibited development of Th2 bias
same,airway inflammation in recipients (lung histology),[3]; FIG. 14e,inhibited development of Th2 bias and airway inflammation
C=C[C@@]1(C)CC(=O)[C@]2(O)[C@@]3(C)[C@@H](O)CCC(C)(C)[C@@H]3[C@H](O)[C@H](OC(C)=O)[C@@]2(C)O1 [colforsin],OVA-specific IL-17 response,Wild-type B6 mice,provoked a robust OVA-specific IL-17 response
"CC(C)Cn1c(=O)n(C)c(=O)c2[nH]cnc21 [IBMX, 3-isobutyl-1-methylxanthine]",OVA-specific IL-17 response,Wild-type B6 mice,provoked a robust OVA-specific IL-17 response
CC1CCc2c(cc(Br)c(F)c2Br)N1C=O (stereo not drawn) [CE3F4],pro-Th2 phenotype of WT CD11c+ BM cells (IL-4 levels of co-cultured OT-2 CD4+ T cells),WT CD11c^+ BM cells,"but not with an EPAC inhibitor (CE3F4), promoted their pro-Th2 phenotype"
"O=P1(O)OCC2OC(n3cnc4c(Nc5ccccc5)ncnc43)C(O)C2O1 (stereo not drawn) [N6, Phenyladenosine-3′,5′-cyclic monophosphate]",pro-Th2 phenotype of Gnas^ΔCD11c CD11c+ BM cells (IL-4 levels of co-cultured OT-2 CD4+ T cells),"[1]; BM cells incubated with cAMP analogue 50 μM for 24 h, washed, co-cultured with OT-2 T cells, FIG. 9a",abolished the pro-Th2 phenotype
